In brackets after ≈: the same amount, converted by molar mass. Where a SMILES comes first, the peptide text is derived from it.
Experiments:
S. aureus ATCC 25923 = assay type: cell-based, Staphylococcus aureus; conditions: ATCC 25923, 18 h
Text: (§1) To compare the antimicrobial activity among the peptides produced by the method of Example 1, the inventors of the present invention measured the minimal growth inhibitory concentration (MIC), which is minimum concentration of the peptide not allowing any […] of bacterial cells.
(§2) Specifically, the bacterial strains described in the following Table 2 were purchased and cultured to a mid-log phase in MHB (Mueller Hinton Broth) medium. Then, after dilution to bacterial cell concentration of 2×10^5 cells/50 μl, the cells were inoculated to a microtiter plate (NUNC, USA). Thereafter, LL37-1, LL37-2, LL37-3 or LL37-4 peptide which has been synthesized in Example 1 above was subjected to serial dilution, ½ times for each, in a 96-well plate. After adding the peptides in an amount of 50 μl to the cell plate, the cells were cultured for 18 hours at 37° C. By using a microtiter plate reader (Merck Elisa reader, Germany), the absorbance was measured at a wavelength of 600 nm to determine the MIC value of each bacterial strain. As a control group, LL37 as a mother peptide was used and subjected to the same process as above to determine the MIC value of each strain.

[1] = tested on: L. monocytogenes KCTC 3710; assay type: cell-based, Listeria monocytogenes; conditions: KCTC 3710, 18 h
Text: as §1, §2

A. baumannii #10 = assay type: cell-based, Acinetobacter baumannii; conditions: #10
Text: as §1, §2

A. baumannii #11 = assay type: cell-based, Acinetobacter baumannii; conditions: #11
Text: as §1, §2

A. baumannii #12 = assay type: cell-based, Acinetobacter baumannii; conditions: #12
Text: as §1, §2

A. baumannii #13 = assay type: cell-based, Acinetobacter baumannii; conditions: #13
Text: as §1, §2

A. baumannii #19 = assay type: cell-based, Acinetobacter baumannii; conditions: #19
Text: as §1, §2

A. baumannii #2 = assay type: cell-based, Acinetobacter baumannii; conditions: #2
Text: as §1, §2

A. baumannii #3 = assay type: cell-based, Acinetobacter baumannii; conditions: #3
Text: as §1, §2

A. baumannii #4 = assay type: cell-based, Acinetobacter baumannii; conditions: #4
Text: as §1, §2

A. baumannii #5 = assay type: cell-based, Acinetobacter baumannii; conditions: #5
Text: as §1, §2

A. baumannii #8 = assay type: cell-based, Acinetobacter baumannii; conditions: #8
Text: as §1, §2

A. baumannii #9 = assay type: cell-based, Acinetobacter baumannii; conditions: #9
Text: as §1, §2

A. baumannii KCTC 2508 = assay type: cell-based, Acinetobacter baumannii; conditions: KCTC 2508, 18 h
Text: as §1, §2

E. coli ATCC 25922 = assay type: cell-based, Escherichia coli; conditions: ATCC 25922, 18 h
Text: as §1, §2

P. aeruginosa ATCC 27853 = assay type: cell-based, Pseudomonas aeruginosa; conditions: ATCC 27853, 18 h
Text: as §1, §2

S. typhimurium KCTC 1925 = assay type: cell-based, Salmonella typhimurium; conditions: KCTC 1925, 18 h
Text: as §1, §2

[2] = Cytotoxicity in normal cell line (MTT); assay type: cell-based, human; conditions: human
Description: To determine the cytotoxicity of the peptides produced by the method of Example 1 in normal cell line, cytotoxicity was measured by using normal human keratinocyte cell line (HaCaT) and normal human fibroblast cell line (Hs27).
Specifically, normal human keratinocyte (HaCaT) cells and normal human fibroblast (Hs27) cells, which have been cultured in DMEM medium containing 10% FBS (fetal bovine serum), were aliquoted in a microtiter plate to have 1×10^4 cells per well. After culturing them for 24 hours, the cells were subjected to a treatment with LL37, LL37-1, LL37-2, LL37-3 or LL37-4 peptide, each at concentration of 0.5, 1, 2, 4, 8, 16 or 32 μM/well, followed by reaction for 24 hours in a 5% CO2 incubator. After culture, a reaction solution containing 5 mg/ml MTT (Thiazolyl Blue Tetrazolium Bromide) dissolved in phosphate buffered saline (PBS) was added in an amount of 10 μl to each well and the reaction was allowed to occur for 1 hour. After that, the supernatant was discarded, and, by dissolving MTT crystals that are formed by adding 200 μl DMSO (dimethyl sulfoxide), the absorbance at 570 nm was measured to determine the cell survival ability.

Structure (SMILES): CC[C@H](C)[C@H](NC(=O)[C@H](CCCNC(=N)N)NC(=O)[C@H](CCC(N)=O)NC(=O)[C@@H](NC(=O)[C@@H](NC(=O)[C@H](CCCNC(=N)N)NC(=O)[C@H](CCCCN)NC(=O)[C@H](Cc1ccccc1)NC(=O)[C@H](CCC(=O)O)NC(=O)[C@@H](N)CCCCN)[C@@H](C)CC)C(C)C)C(=O)N[C@@H](CCCCN)C(=O)N[C@@H](CC(=O)O)C(=O)N[C@@H](Cc1ccccc1)C(=O)N[C@@H](CC(C)C)C(=O)N[C@@H](CCCNC(=N)N)C(=O)N[C@@H](CC(N)=O)C(N)=O [LL37-1, KEFKRIVQRIKDFLRN-NH2] (H-KEFKRIVQRIKDFLRN-NH2)
- Minimal inhibitory concentration (S. aureus ATCC 25923): 32 µM (≈ 66.9 µg/mL)
- Minimal inhibitory concentration [1]: 128 µM (≈ 267 µg/mL)
- Minimal inhibitory concentration (A. baumannii #10): 4 µM (≈ 8.36 µg/mL)
- Minimal inhibitory concentration (A. baumannii #11): 4 µM (≈ 8.36 µg/mL)
- Minimal inhibitory concentration (A. baumannii #12): 8 µM (≈ 16.7 µg/mL)
- Minimal inhibitory concentration (A. baumannii #13): 4 µM (≈ 8.36 µg/mL)
- Minimal inhibitory concentration (A. baumannii #19): 8 µM (≈ 16.7 µg/mL)
- Minimal inhibitory concentration (A. baumannii #2): 4 µM (≈ 8.36 µg/mL)
- Minimal inhibitory concentration (A. baumannii #3): 8 µM (≈ 16.7 µg/mL)
- Minimal inhibitory concentration (A. baumannii #4): 8 µM (≈ 16.7 µg/mL)
- Minimal inhibitory concentration (A. baumannii #5): 4 µM (≈ 8.36 µg/mL)
- Minimal inhibitory concentration (A. baumannii #8): 4 µM (≈ 8.36 µg/mL)
- Minimal inhibitory concentration (A. baumannii #9): 4 µM (≈ 8.36 µg/mL)
- Minimal inhibitory concentration (A. baumannii KCTC 2508): 16 µM (≈ 33.4 µg/mL)
- Minimal inhibitory concentration (E. coli ATCC 25922): 128 µM (≈ 267 µg/mL)
- Minimal inhibitory concentration (P. aeruginosa ATCC 27853): 16 µM (≈ 33.4 µg/mL)
- Minimal inhibitory concentration (S. typhimurium KCTC 1925): 32 µM (≈ 66.9 µg/mL)
- viability at 24 h, 0.5 µM ([2]; HaCaT keratinocyte cells): 97%
- viability at 24 h, 1 µM ([2]; HaCaT keratinocyte cells): 103%
- viability at 24 h, 2 µM ([2]; HaCaT keratinocyte cells): 98%
- viability at 24 h, 4 µM ([2]; HaCaT keratinocyte cells): 99%
- viability at 24 h, 8 µM ([2]; HaCaT keratinocyte cells): 103%
- viability at 24 h, 16 µM ([2]; HaCaT keratinocyte cells): 101%
- viability at 24 h, 32 µM ([2]; HaCaT keratinocyte cells): 104%
- viability at 24 h, 0.5 µM ([2]; Hs27 fibroblast cells): 100%
- viability at 24 h, 1 µM ([2]; Hs27 fibroblast cells): 100%
- viability at 24 h, 2 µM ([2]; Hs27 fibroblast cells): 103%
- viability at 24 h, 4 µM ([2]; Hs27 fibroblast cells): 95%
- viability at 24 h, 8 µM ([2]; Hs27 fibroblast cells): 96%
- viability at 24 h, 16 µM ([2]; Hs27 fibroblast cells): 92%
- viability at 24 h, 32 µM ([2]; Hs27 fibroblast cells): 95%

Source: patent US11452758B2, “Antimicrobial peptide derived from LL37 peptide and uses thereof” (INDUSTRY-ACADEMIC COOPERATION FOUNDATION, CHOSUN UNIVERSITY, priority 2018, dated 2022)
